Paper doi:10.1101/2024.08.06.606911v7 (biorxiv, 2025)
pKd: −log10 of the molar value.

Target: PTEN (GST-PTEN; Myc-PTEN) (Homo sapiens, UniProt P60484)
Experiment: SPR, BIACORE […], PTEN immobilised on CM5 chip
Type: binding

PTEN (GST-PTEN; Myc-PTEN), sequence (P60484 whole entry): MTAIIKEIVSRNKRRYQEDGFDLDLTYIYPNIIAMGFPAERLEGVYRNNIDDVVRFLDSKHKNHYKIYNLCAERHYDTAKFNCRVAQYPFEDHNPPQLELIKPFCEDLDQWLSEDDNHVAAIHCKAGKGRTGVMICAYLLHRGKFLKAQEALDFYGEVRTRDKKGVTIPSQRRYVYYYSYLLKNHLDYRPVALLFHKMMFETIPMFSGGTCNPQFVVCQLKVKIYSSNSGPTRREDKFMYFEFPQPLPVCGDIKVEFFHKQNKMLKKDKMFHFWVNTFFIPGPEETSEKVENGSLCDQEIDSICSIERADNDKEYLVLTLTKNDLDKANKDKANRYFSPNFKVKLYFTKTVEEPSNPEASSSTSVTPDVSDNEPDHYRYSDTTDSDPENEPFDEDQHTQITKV

- pKd: 3.64
Structure (SMILES): C[C@@H]1O[C@@H](O[C@@H]2[C@@H](O)[C@H](OCCc3ccc(O)c(O)c3)O[C@H](CO[C@@H]3O[C@H](CO)[C@@H](O)[C@H](O)[C@H]3O)[C@H]2OC(=O)/C=C/c2ccc(O)c(O)c2)[C@H](O)[C@H](O)[C@H]1O [Echinacoside]
